Measured values published in US20220401483A1, “COMBINATION OF A T CELL THERAPY AND (S)-3-[4-(4-MORPHOLIN-4-YLMETHYL-BENZYLOXY)-L-OXO-L,3-DIHYDRO-ISOINDOL-2-YL]-PIPERIDINE-2,6-DIONE” (Juno Therapeutics, Inc., priority 2019, published 2022).

Test system: Ikaros
Assay: Ikaros expression in chronically stimulated CAR T cells with concurrent treatment
Type: cell-based, human
Conditions: 100 nM
Protocol: Anti-CD19 CAR-expressing T cells were produced substantially as described in Example 1. To subject cells to chronic stimulation conditions, the CAR+ T cells were stimulated with 30 μg/mL plate-bound anti-idiotypic (anti-ID) antibody (see e.g. WO2018/023100) for 6 days in the presence of (S)-3-[4-(4-morpholin-4-ylmethyl-benzyloxy)-1-oxo-1,3-dihydro-isoindol-2-yl]-piperidine-2,6-dione (Compound A) or a vehicle control, to induce chronic stimulation. […] Cells were assessed at various times for cytolytic function, CAR T cell number and cytokine production.
After the long-term, chronic stimulation with concurrent treatment with Compound A, CAR T cells were assessed for Ikaros expression or for CAR T function following rechallenge with CD19-expressing target cells.
Expression of Ikaros in CAR T cells that had been subjected to chronic stimulation in the presence of Compound A (1 nM, 10 nM or 100 nM) was measured by intracellular flow cytometry analysis using an antibody to Ikaros.

O=C1CC[C@H](N2Cc3c(OCc4ccc(CN5CCOCC5)cc4)cccc3C2=O)C(=O)N1 [Compound A, (S)-3-[4-(4-morpholin-4-ylmethyl-benzyloxy)-1-oxo-1,3-dihydro-isoindol-2-yl]-piperidine-2,6-dione]
Ikaros expression in chronically stimulated cells: reduction of Ikaros expression was maintained
